This test concerns gamma-secretase. Nature of the test: gamma-secretase activity in a solubilized membrane preparation (cell-free assay per McLendon et al.). The conditions noted are these: read-out: IC50 activity for inhibiting gamma-secretase activity. It is filed as biochemical. The protocol: The activity of compounds of the invention in inhibiting gamma-secretase activity was determined in a solubilized membrane preparation generally according to the description provided in McLendon et al. Cell-free assays for γ-secretase activity, The FASEB Journal (Vol. 14, December 2000, pp. 2383-2386).

From US7521464B2, “Pyrazole compounds for treatment of neurodegenerative disorders” (Pfizer Inc., priority 2002, dated 2009) come the findings set out here.

The term IC50 denotes the concentration that inhibits the measured activity by half. `O=C(Cc1cc(F)cc(F)c1)NC(C(=O)Nc1cc(-c2ccccc2)n[nH]1)c1ccccc1` (centres unmarked) [Example 84, 2-[2-(3,5-difluoro-phenyl)-acetylamino]-2-phenyl-N-(5-phenyl-2H-pyrazol-3-yl)-acetamide]: the IC50 is around 1000 nM.

Take `CCCC(NC(=O)CC(C)CCC=C(C)C)C(=O)Nc1cc(-c2ccccc2)n[nH]1` (centres unmarked) [Example 138, 3,7-Dimethyl-oct-6-enoic acid [1-(5-phenyl-2H-pyrazol-3-ylcarbamoyl)-butyl]-amide]: the IC50 is around 5000 nM.
